Reference: patent publication US20160113921A1, “COMBINATION THERAPY COMPRISING OXAZOLIDINONE-QUINOLONES FOR USE IN TREATING BACTERIAL INFECTIONS” (MORPHOCHEM AKTIENGESELLSCHAFT FÜR KOMBINATORISCHE CHEMIE, priority 2013, published 2016)
In brackets after ≈: the same amount, converted by molar mass. Where two headings read alike, the source gives them in different places.

Legend:
Format in all cases: cell-based
E. faecalis ATCC 29212 = assay: MIC, broth microdilution (CLSI), CAMHB; conditions: Enterococcus faecalis
Method: (§1) MIC-testing was done immediately after preparation of the dilutions. All tests were done in duplicate and repeated once on a separate occasion.
(§2) 1 mL of the bacterial suspension was transferred into a tube containing 10 mL CAMHB and was vortexed thoroughly. (S. pneumoniae 1 mL in 10 mL CAMHB+5% lysed horse blood). Columns 1-15 of the 96-well plate were inoculated with 5 μL of this suspension (1-15=antibacterial solution, 16=sterile medium without test item).
(§3) Turbidity was read visually with a mirror.

E. faecalis V583 (VanB) = assay: MIC, broth microdilution (CLSI), CAMHB; conditions: Enterococcus faecalis
Method: as §1, §2, §3

E. faecium DSMZ 2146 = assay: MIC, broth microdilution (CLSI), CAMHB; conditions: Enterococcus faecium
Method: as §1, §2, §3

[1] = system: E. faecium UW 3695 (linezolid and quinolone-resistant); assay: MIC, broth microdilution (CLSI), CAMHB; conditions: Enterococcus faecium
Method: as §1, §2, §3

S. aureus ATCC 29213 = assay: MIC, broth microdilution (CLSI), CAMHB; conditions: Staphylococcus aureus
Method: as §1, §2, §3

[2] = system: S. aureus ATCC 33593 (MRSA); assay: MIC, broth microdilution (CLSI), CAMHB; conditions: Staphylococcus aureus
Method: as §1, §2, §3

[3] = system: S. aureus NRS-119 (MRSA, linezolid- and quinolone-resistant); assay: MIC, broth microdilution (CLSI), CAMHB; conditions: Staphylococcus aureus
Method: as §1, §2, §3

[4] = system: S. aureus Visa Mu 50 (MRSA, vancomycin intermediate susceptible); assay: MIC, broth microdilution (CLSI), CAMHB; conditions: Staphylococcus aureus
Method: as §1, §2, §3

S. pneumoniae ATCC 33400 = assay: MIC, broth microdilution (CLSI), CAMHB; conditions: Streptococcus pneumoniae
Method: as §1, §2, §3

[5] = system: S. pneumoniae BAY 19397 (penicillin-, macrolide-, quinolone-resistant); assay: MIC, broth microdilution (CLSI), CAMHB; conditions: Streptococcus pneumoniae
Method: as §1, §2, §3

[6] = system: S. aureus DSM 11823, clone 16 (MSSA, quinolone-resistant); assay: microbe, parasite or virus in culture; conditions: Staphylococcus aureus
Method: as §1, §2, §3

[7] = system: Gram-positive strains tested; assay: MIC testing, statements on the Gram-positive strain panel; conditions: read-out: MIC (inhibitory concentration)
From the text: as §1

E. cloacae ATCC 13047 = assay: MIC, broth microdilution (CLSI), CAMHB; conditions: Enterobacter cloacae
Method: as §1, §2, §3

[8] = system: E. cloacae NRZ-00239 (VIM-1); assay: MIC, broth microdilution (CLSI), CAMHB; conditions: Enterobacter cloacae
Method: as §1, §2, §3

E. coli ATCC 25922 = assay: MIC, broth microdilution (CLSI), CAMHB; conditions: Escherichia coli
Method: as §1, §2, §3

[9] = system: E. coli GNS-2601 (ESBL CTX-M-15); assay: MIC, broth microdilution (CLSI), CAMHB; conditions: Escherichia coli
Method: as §1, §2, §3

[10] = system: E. coli NRZ-00302 (metallo β-lactamase NDM-1); assay: MIC, broth microdilution (CLSI), CAMHB; conditions: Escherichia coli
Method: as §1, §2, §3

[11] = system: E. coli NRZ-00401 (metallo β-lactamase VIM-1); assay: MIC, broth microdilution (CLSI), CAMHB; conditions: Escherichia coli
Method: as §1, §2, §3

K. pneumoniae ATCC 13883 = assay: MIC, broth microdilution (CLSI), CAMHB; conditions: Klebsiella pneumoniae
Method: as §1, §2, §3

[12] = system: K. pneumoniae NRZ-00002 (OXA-48); assay: MIC, broth microdilution (CLSI), CAMHB; conditions: Klebsiella pneumoniae
Method: as §1, §2, §3

[13] = system: K. pneumoniae NRZ-00103 (KPC-2); assay: MIC, broth microdilution (CLSI), CAMHB; conditions: Klebsiella pneumoniae
Method: as §1, §2, §3

[14] = system: K. pneumoniae NRZ-00535 (VIM-1); assay: MIC, broth microdilution (CLSI), CAMHB; conditions: Klebsiella pneumoniae
Method: as §1, §2, §3

P. aeruginosa ATCC 10145 = assay: MIC, broth microdilution (CLSI), CAMHB; conditions: Pseudomonas aeruginosa
Method: as §1, §2, §3

[15] = system: P. aeruginosa NRZ-00425 (VIM-1); assay: MIC, broth microdilution (CLSI), CAMHB; conditions: Pseudomonas aeruginosa
Method: as §1, §2, §3

P. mirabilis ATCC 9240 = assay: MIC, broth microdilution (CLSI), CAMHB; conditions: Proteus mirabilis
Method: as §1, §2, §3

[16] = system: P. mirabilis NRZ-00185 (AmpC, type CMY-2); assay: MIC, broth microdilution (CLSI), CAMHB; conditions: Proteus mirabilis
Method: as §1, §2, §3

[17] = system: Gram-negative test strains (Enterobacteriaceae, non-fermenters); assay: MIC testing, statements on the Gram-negative strain panel
From the text: as §1

[18] = monosubstance, Ef ATCC29212, read-out: MIC
[19] = monosubstance, Ef V583, read-out: MIC
[20] = monosubstance, Efc DSMZ2146, read-out: MIC
[21] = monosubstance, Efc UW3695, read-out: MIC
[22] = monosubstance, Sa ATCC29213, read-out: MIC
[23] = monosubstance, Sa ATCC33593, read-out: MIC
[24] = monosubstance, Sa NRS119, read-out: MIC
[25] = monosubstance, Sa VisaMu50, read-out: MIC
[26] = monosubstance, Spn ATCC33400, read-out: MIC
[27] = monosubstance, Spn 19397, read-out: MIC

Row | SMILES | MIC (E. faecalis ATCC 29212; [18]) | MIC (E. faecalis V583 (VanB); [19]) | MIC (E. faecium DSMZ 2146; [20]) | MIC [1, 21] | MIC (S. aureus ATCC 29213; [22]) | MIC [2, 23] | MIC [3, 24] | MIC [4, 25] | MIC (S. pneumoniae ATCC 33400; [26]) | MIC [5, 27] | MIC [6] | MIC (E. faecalis ATCC 29212; ATCC29212) | MIC (E. faecalis V583 (VanB)) | MIC (E. faecium DSMZ 2146; DSMZ2146) | MIC [1] | MIC (S. aureus ATCC 29213; ATCC29213) | MIC [2] | MIC [3] | MIC [4] | MIC (S. pneumoniae ATCC 33400; ATCC33400) | other results
1 | CC(=O)NC[C@H]1CN(c2ccc(N3CCOCC3)c(F)c2)C(=O)O1 [linezolid] | 4 µg/mL (≈ 11.9 µM) | 2 µg/mL (≈ 5.93 µM) | 4 µg/mL (≈ 11.9 µM) | 16 µg/mL (≈ 47.4 µM) | 2 µg/mL (≈ 5.93 µM) | 2 µg/mL (≈ 5.93 µM) | 64 µg/mL (≈ 190 µM) | 4 µg/mL (≈ 11.9 µM) | 2 µg/mL (≈ 5.93 µM) | 1 µg/mL (≈ 2.96 µM) | 2 µg/mL (≈ 5.93 µM) |  |  |  |  |  |  |  |  |  | MIC ([7]; all the test strains except S. aureus NRS-119 and E. faecium UW 3695): < 4 µg/mL
2 | COc1c(N2C[C@@H]3CCCN[C@@H]3C2)c(F)cc2c(=O)c(C(=O)O)cn(C3CC3)c12 [moxifloxacin] | 0.5 µg/mL (≈ 1.25 µM) | 0.25 µg/mL (≈ 0.623 µM) | 0.5 µg/mL (≈ 1.25 µM) | 64 µg/mL (≈ 159 µM) | 0.12 µg/mL (≈ 0.299 µM) | 0.06 µg/mL (≈ 0.149 µM) | 8 µg/mL (≈ 19.9 µM) | 8 µg/mL (≈ 19.9 µM) | 0.25 µg/mL (≈ 0.623 µM) | 4 µg/mL (≈ 9.96 µM) |  |  |  |  |  |  |  |  |  |  | 
3 | CN(C)c1cc(NC(=O)CNC(C)(C)C)c(O)c2c1C[C@H]1C[C@H]3[C@H](N(C)C)C(O)=C(C(N)=O)C(=O)[C@@]3(O)C(O)=C1C2=O [tigecycline] |  |  |  |  |  |  |  |  |  |  | 0.125 µg/mL (≈ 0.213 µM) | 0.25 µg/mL (≈ 0.427 µM) | 0.25 µg/mL (≈ 0.427 µM) | 0.25 µg/mL (≈ 0.427 µM) | 0.25 µg/mL (≈ 0.427 µM) | 0.25 µg/mL (≈ 0.427 µM) | 0.25 µg/mL (≈ 0.427 µM) | 0.25 µg/mL (≈ 0.427 µM) | 0.5 µg/mL (≈ 0.854 µM) | 0.0075 µg/mL (≈ 0.0128 µM) | MIC (E. cloacae ATCC 13047; ATCC13047): 2 µg/mL (≈ 3.41 µM); MIC [8]: 2 µg/mL (≈ 3.41 µM); MIC (E. coli ATCC 25922; ATCC25922): 0.5 µg/mL (≈ 0.854 µM); MIC [9]: 4 µg/mL (≈ 6.83 µM); MIC [10]: 2 µg/mL (≈ 3.41 µM); MIC [11]: 2 µg/mL (≈ 3.41 µM); MIC (K. pneumoniae ATCC 13883; ATCC13883): 2 µg/mL (≈ 3.41 µM); MIC [12]: 2 µg/mL (≈ 3.41 µM); MIC [13]: 4 µg/mL (≈ 6.83 µM); MIC [14]: 2 µg/mL (≈ 3.41 µM); MIC (P. aeruginosa ATCC 10145; ATCC10145): 16 µg/mL (≈ 27.3 µM); MIC [15]: 32 µg/mL (≈ 54.6 µM); MIC (P. mirabilis ATCC 9240; ATCC9240): 8 µg/mL (≈ 13.7 µM); MIC [16]: 8 µg/mL (≈ 13.7 µM); MIC [5]: 0.0075 µg/mL (≈ 0.0128 µM); MIC [17]: > 2 µg/mL; MIC [7]: < 0.5 µg/mL
4 | NC[C@H]1O[C@H](O[C@H]2[C@H](O)[C@@H](O[C@H]3O[C@H](CO)[C@@H](O)[C@H](N)[C@H]3O)[C@H](N)C[C@@H]2N)[C@H](N)C[C@@H]1O [tobramycin] |  |  |  |  |  |  |  |  |  |  |  |  |  |  |  |  |  |  |  |  | MIC (E. cloacae ATCC 13047; monosubstance, Ecl ATCC13047, read-out: MIC): 0.25 µg/mL (≈ 0.535 µM); MIC ([8]; monosubstance, Ecl NRZ00239, read-out: MIC): 4 µg/mL (≈ 8.56 µM); MIC (E. coli ATCC 25922; monosubstance, Ec ATCC25922, read-out: MIC): 1 µg/mL (≈ 2.14 µM); MIC ([9]; monosubstance, Ec GNS2601, read-out: MIC): 32 µg/mL (≈ 68.4 µM); MIC ([10]; monosubstance, Ec NRZ00302, read-out: MIC): 64 µg/mL (≈ 137 µM); MIC ([11]; monosubstance, Ec NRZ00401, read-out: MIC): 4 µg/mL (≈ 8.56 µM); MIC (K. pneumoniae ATCC 13883; monosubstance, Kp ATCC13883, read-out: MIC): 0.125 µg/mL (≈ 0.267 µM); MIC ([12]; monosubstance, Kp NRZ00002, read-out: MIC): 16 µg/mL (≈ 34.2 µM); MIC ([13]; monosubstance, Kp NRZ00103, read-out: MIC): 16 µg/mL (≈ 34.2 µM); MIC ([14]; monosubstance, Kp NRZ00535, read-out: MIC): 8 µg/mL (≈ 17.1 µM); MIC (P. aeruginosa ATCC 10145; monosubstance, Pa ATCC10145, read-out: MIC): 0.5 µg/mL (≈ 1.07 µM); MIC ([15]; monosubstance, Pa NRZ00425, read-out: MIC): > 128 µg/mL; MIC (P. mirabilis ATCC 9240; monosubstance, Pm ATCC9240, read-out: MIC): 0.5 µg/mL (≈ 1.07 µM); MIC ([16]; monosubstance, Pm NRZ00185, read-out: MIC): 0.125 µg/mL (≈ 0.267 µM); MIC ([17]; remainder / remaining / all other test strains, as worded for each agent, read-out: MIC): > 4 µg/mL
5 | CN[C@H](CC(C)C)C(=O)N[C@H]1C(=O)N[C@@H](CC(N)=O)C(=O)N[C@H]2C(=O)N[C@H]3C(=O)N[C@H](C(=O)N[C@H](C(=O)O)c4cc(O)cc(O)c4-c4cc3ccc4O)[C@H](O)c3ccc(c(Cl)c3)Oc3cc2cc(c3O[C@@H]2O[C@H](CO)[C@@H](O)[C@H](O)[C@H]2O[C@H]2C[C@](C)(N)[C@H](O)[C@H](C)O2)Oc2ccc(cc2Cl)[C@H]1O [vancomycin] |  |  |  |  |  |  |  |  |  |  | 0.015 µg/mL (≈ 0.0104 µM) | 1 µg/mL (≈ 0.69 µM) | 32 µg/mL (≈ 22.1 µM) | 0.25 µg/mL (≈ 0.173 µM) | 0.25 µg/mL (≈ 0.173 µM) | 0.25 µg/mL (≈ 0.173 µM) | 0.5 µg/mL (≈ 0.345 µM) | 1 µg/mL (≈ 0.69 µM) | 2 µg/mL (≈ 1.38 µM) | 0.25 µg/mL (≈ 0.173 µM) | MIC [5]: 0.25 µg/mL (≈ 0.173 µM)
